Measured values from publication PMC5218480 (PLoS ONE, 2017).

Tested on: MV-4-11 cells
Test: Gene expression microarray analysis (Affymetrix PrimeView) and GSEA
Assay type: cell-based, human
Parameters: RFU PODN (11730768_x_at) / Fold change /veh PODN (11730768_x_at) / RFU LINC00158 (11744669_a_at) / Fold change /veh LINC00158 (11744669_a_at) / RFU DUSP10 (11751237_a_at) / Fold change /veh DUSP10 (11751237_a_at) / RFU ID3 (11757404_x_at) / Fold change /veh ID3 (11757404_x_at) / RFU PLEKHG5 (11737974_s_at) / Fold change /veh PLEKHG5 (11737974_s_at) / RFU LRRC4B (11730491_at) / Fold change /veh LRRC4B (11730491_at) / RFU GIMAP4 (11747438_a_at) / Fold change /veh GIMAP4 (11747438_a_at) / RFU KRT8 (11758183_x_at) / Fold change /veh KRT8 (11758183_x_at) / RFU CNN1 (11734310_a_at) / Fold change /veh CNN1 (11734310_a_at) / RFU VPS37D (11726825_at) / Fold change /veh VPS37D (11726825_at) / RFU C10orf10 (11716522_x_at) / Fold change /veh C10orf10 (11716522_x_at) / RFU KIR2DL2 /// KIR2DL4 /// KIR2DL5A /// KIR2DL5B /// KIR2DS1 /// KIR2DS2 /// KIR2DS3 /// KIR2DS4 /// KIR3DL3 /// KIR3DL3 /// KIR3DS1 (11738374_at) / Fold change /veh KIR2DL2 /// KIR2DL4 /// KIR2DL5A /// KIR2DL5B /// KIR2DS1 /// KIR2DS2 /// KIR2DS3 /// KIR2DS4 /// KIR3DL3 /// KIR3DL3 /// KIR3DS1 (11738374_at) / RFU C1QL1 (11718748_at) / Fold change /veh C1QL1 (11718748_at) / RFU TMPRSS4 (11747572_a_at) / Fold change /veh TMPRSS4 (11747572_a_at) / RFU HAMP (11756126_x_at) / Fold change /veh HAMP (11756126_x_at) / RFU RNFT2 (11725882_a_at) / Fold change /veh RNFT2 (11725882_a_at) / RFU NR4A2 (11747474_a_at) / Fold change /veh NR4A2 (11747474_a_at) / RFU ABCC12 (11746883_a_at) / Fold change /veh ABCC12 (11746883_a_at) / RFU TMEM136 (11760407_x_at) / Fold change /veh TMEM136 (11760407_x_at) / RFU CLDN22 /// WWC2 (11732394_at) / Fold change /veh CLDN22 /// WWC2 (11732394_at) / RFU HLA-DPB1 (11760878_x_at) / Fold change /veh HLA-DPB1 (11760878_x_at) / RFU SPINT1 (11716480_a_at) / Fold change /veh SPINT1 (11716480_a_at) / RFU GAP43 (11754022_s_at) / Fold change /veh GAP43 (11754022_s_at) / RFU A4GNT (11735810_at) / Fold change /veh A4GNT (11735810_at) / RFU PRB3 (11715151_x_at) / Fold change /veh PRB3 (11715151_x_at) / RFU TUBB4B (11761932_at) / Fold change /veh TUBB4B (11761932_at) / RFU CAPN14 (11732068_a_at) / Fold change /veh CAPN14 (11732068_a_at) / RFU TMCC2 (11721928_a_at) / Fold change /veh TMCC2 (11721928_a_at) / RFU IRGQ (11745062_a_at) / Fold change /veh IRGQ (11745062_a_at) / RFU FAM174B (11720279_a_at) / Fold change /veh FAM174B (11720279_a_at) / RFU TMPRSS4 (11748680_a_at) / Fold change /veh TMPRSS4 (11748680_a_at) / RFU FAM212B (11763350_a_at) / Fold change /veh FAM212B (11763350_a_at) / RFU PLEKHG5 (11743358_a_at) / Fold change /veh PLEKHG5 (11743358_a_at) / RFU ZSCAN30 (11745921_a_at) / Fold change /veh ZSCAN30 (11745921_a_at) / RFU CMKLR1 (11741424_a_at) / Fold change /veh CMKLR1 (11741424_a_at) / RFU LOC101060620 /// MAPK8IP1 (11723275_at) / Fold change /veh LOC101060620 /// MAPK8IP1 (11723275_at) / RFU SPTSSB (11747773_x_at) / Fold change /veh SPTSSB (11747773_x_at) / RFU PRSS12 (11739890_at) / Fold change /veh PRSS12 (11739890_at) / RFU BIN1 (11741810_x_at) / Fold change /veh BIN1 (11741810_x_at) / RFU WNT11 (11732464_a_at) / Fold change /veh WNT11 (11732464_a_at) / RFU C10orf10 (11716521_a_at) / Fold change /veh C10orf10 (11716521_a_at) / RFU C5orf56 (11738089_at) / Fold change /veh C5orf56 (11738089_at) / RFU CYB561 (11721691_x_at) / Fold change /veh CYB561 (11721691_x_at) / RFU ANKRD19P (11752326_a_at) / Fold change /veh ANKRD19P (11752326_a_at) / RFU OR2T12 /// OR2T33 /// OR2T8 (11738714_s_at) / Fold change /veh OR2T12 /// OR2T33 /// OR2T8 (11738714_s_at) / RFU VCAN (11748164_a_at) / Fold change /veh VCAN (11748164_a_at) / RFU JSRP1 (11732532_at) / Fold change /veh JSRP1 (11732532_at) / RFU KRTAP10-11 (11738290_x_at) / Fold change /veh KRTAP10-11 (11738290_x_at) / RFU MYO3A (11730013_a_at) / Fold change /veh MYO3A (11730013_a_at) / RFU EBF3 (11725865_a_at) / Fold change /veh EBF3 (11725865_a_at) / RFU CAMK2N1 (11719241_x_at) / Fold change /veh CAMK2N1 (11719241_x_at) / RFU C5orf56 (11738088_a_at) / Fold change /veh C5orf56 (11738088_a_at) / RFU OLFML3 (11715873_a_at) / Fold change /veh OLFML3 (11715873_a_at) / RFU LOC100653217 /// NTM (11731650_a_at) / Fold change /veh LOC100653217 /// NTM (11731650_a_at) / RFU MAPK11 (11762145_a_at) / Fold change /veh MAPK11 (11762145_a_at) / RFU FIZ1 (11724087_x_at) / Fold change /veh FIZ1 (11724087_x_at) / RFU OASL (11726364_x_at) / Fold change /veh OASL (11726364_x_at) / RFU SOX15 (11748057_x_at) / Fold change /veh SOX15 (11748057_x_at) / RFU CD79A (11719716_a_at) / Fold change /veh CD79A (11719716_a_at) / RFU HIST1H1D (11736915_at) / Fold change /veh HIST1H1D (11736915_at) / RFU CASKIN2 (11723855_a_at) / Fold change /veh CASKIN2 (11723855_a_at) / RFU LOC730098 (11760151_x_at) / Fold change /veh LOC730098 (11760151_x_at) / RFU OR4N2 (11742367_at) / Fold change /veh OR4N2 (11742367_at) / RFU PRRT2 (11749266_a_at) / Fold change /veh PRRT2 (11749266_a_at) / RFU SNX32 (11753110_a_at) / Fold change /veh SNX32 (11753110_a_at) / RFU CDHR5 (11726645_a_at) / Fold change /veh CDHR5 (11726645_a_at) / RFU RCAN1 (11760418_a_at) / Fold change /veh RCAN1 (11760418_a_at) / RFU FAM167A (11723789_a_at) / Fold change /veh FAM167A (11723789_a_at) / RFU FAM26E (11764081_at) / Fold change /veh FAM26E (11764081_at) / RFU ISYNA1 (11749810_s_at) / Fold change /veh ISYNA1 (11749810_s_at) / RFU ACY1 (11761880_at) / Fold change /veh ACY1 (11761880_at) / RFU 11764098_at / Fold change /veh 11764098_at / RFU SAMD14 (11745864_x_at) / Fold change /veh SAMD14 (11745864_x_at) / RFU NPB (11741838_a_at) / Fold change /veh NPB (11741838_a_at) / RFU TMPRSS6 (11731388_a_at) / Fold change /veh TMPRSS6 (11731388_a_at) / RFU KRTAP10-2 (11738614_at) / Fold change /veh KRTAP10-2 (11738614_at) / RFU ARHGAP8 /// PRR5-ARHGAP8 (11727945_x_at) / Fold change /veh ARHGAP8 /// PRR5-ARHGAP8 (11727945_x_at) / RFU KRTAP5-7 /// NADSYN1 (11734609_at) / Fold change /veh KRTAP5-7 /// NADSYN1 (11734609_at) / RFU RASL12 (11751679_a_at) / Fold change /veh RASL12 (11751679_a_at) / RFU CDKN2B (11736163_a_at) / Fold change /veh CDKN2B (11736163_a_at) / RFU PRF1 (11729649_at) / Fold change /veh PRF1 (11729649_at) / RFU, ZNF638 /// ZNF638-IT1 / Fold change vs veh, ZNF638 /// ZNF638-IT1 / RFU, PANK3 / Fold change vs veh, PANK3 / RFU, SH3YL1 / Fold change vs veh, SH3YL1 / RFU, ZEB2 / Fold change vs veh, ZEB2 / RFU, NRIP1 / Fold change vs veh, NRIP1 / RFU, PTTG1IP / Fold change vs veh, PTTG1IP / RFU, CAPN2 / Fold change vs veh, CAPN2 / RFU, MED14 / Fold change vs veh, MED14 / RFU, SNORA58 / Fold change vs veh, SNORA58 / RFU, C1orf63 / Fold change vs veh, C1orf63 / RFU, LRRFIP1 / Fold change vs veh, LRRFIP1 / RFU, NDUFAF7 / Fold change vs veh, NDUFAF7 / RFU, SLC12A2 / Fold change vs veh, SLC12A2 / RFU, IBTK / Fold change vs veh, IBTK / RFU, ESF1 / Fold change vs veh, ESF1 / Fold change vs veh, TMEM50B / RFU, TAOK1 / Fold change vs veh, TAOK1 / RFU, ACBD3 / Fold change vs veh, ACBD3 / RFU, TMA16 / Fold change vs veh, TMA16 / RFU, RWDD3 / Fold change vs veh, RWDD3 / RFU, BCAT1 / Fold change vs veh, BCAT1 / RFU, EDEM3 / Fold change vs veh, EDEM3 / RFU, TMEM33 / Fold change vs veh, TMEM33 / RFU, WDR75 / Fold change vs veh, WDR75 / RFU, AHCTF1 / Fold change vs veh, AHCTF1 / RFU, TFRC / Fold change vs veh, TFRC / RFU, ZDHHC17 / Fold change vs veh, ZDHHC17 / RFU, NOM1 / Fold change vs veh, NOM1 / RFU, ARL8B / Fold change vs veh, ARL8B / RFU, ZBTB11 / Fold change vs veh, ZBTB11 / RFU, TAMM41 / Fold change vs veh, TAMM41 / RFU, KIAA1704 /// LOC100996395 / Fold change vs veh, KIAA1704 /// LOC100996395 / RFU, ING1 / Fold change vs veh, ING1 / RFU, TRMT61B / Fold change vs veh, TRMT61B / RFU, FUBP3 / Fold change vs veh, FUBP3 / RFU, TP53 / Fold change vs veh, TP53 / RFU, TNKS2 / Fold change vs veh, TNKS2 / RFU, ZFP14 / Fold change vs veh, ZFP14 / RFU, ACTR2 / Fold change vs veh, ACTR2 / RFU, PPP3R1 / Fold change vs veh, PPP3R1 / RFU, PIK3R1 / Fold change vs veh, PIK3R1 / RFU, HNRNPA1 / Fold change vs veh, HNRNPA1 / RFU, RNF170 / Fold change vs veh, RNF170 / RFU, ZNF28 / Fold change vs veh, ZNF28 / RFU, RNGTT / Fold change vs veh, RNGTT / RFU, OGT / Fold change vs veh, OGT / RFU, BRD1 / Fold change vs veh, BRD1 / RFU, MARS / Fold change vs veh, MARS / RFU, ZNF655 / Fold change vs veh, ZNF655 / RFU, FAHD1 / Fold change vs veh, FAHD1 / RFU, BDP1 / Fold change vs veh, BDP1 / RFU, LRRCC1 / Fold change vs veh, LRRCC1 / RFU, ARID1A / Fold change vs veh, ARID1A / RFU, ZNF146 / Fold change vs veh, ZNF146 / RFU, ZNF330 / Fold change vs veh, ZNF330 / RFU, GPN3 / Fold change vs veh, GPN3 / RFU, C9orf123 / Fold change vs veh, C9orf123 / RFU, N4BP2L2 / Fold change vs veh, N4BP2L2 / RFU, ARFIP1 / Fold change vs veh, ARFIP1 / RFU, FAM179B / Fold change vs veh, FAM179B / RFU, BCL10 / Fold change vs veh, BCL10 / RFU, UHRF1BP1L / Fold change vs veh, UHRF1BP1L / RFU, BET1 / Fold change vs veh, BET1 / RFU, CNOT2 / Fold change vs veh, CNOT2 / RFU, ZNF268 / Fold change vs veh, ZNF268 / Fold change vs veh, ZNF507 / RFU, DGCR2 / Fold change vs veh, DGCR2 / RFU, WDSUB1 / Fold change vs veh, WDSUB1 / Fold change vs veh, HSP90B1 /// MIR3652 / RFU, ADSS / Fold change vs veh, ADSS / RFU, GK / Fold change vs veh, GK / RFU, ZNF148 / Fold change vs veh, ZNF148 / RFU, TAF9 / Fold change vs veh, TAF9 / RFU, SLC1A5 / Fold change vs veh, SLC1A5 / RFU, SLMO2 / Fold change vs veh, SLMO2 / RFU, ABCC4 / Fold change vs veh, ABCC4 / RFU, LOC101060439 /// RAP1B / Fold change vs veh, LOC101060439 /// RAP1B / RFU, RFX7 / Fold change vs veh, RFX7 / RFU, GTPBP10 / Fold change vs veh, GTPBP10 / RFU, CNEP1R1 / Fold change vs veh, CNEP1R1 / RFU, BIVM-ERCC5 /// ERCC5 / Fold change vs veh, BIVM-ERCC5 /// ERCC5 / RFU, ILF3 / Fold change vs veh, ILF3 / RFU 11762660_at / Fold change /veh 11762660_at / RFU VCAN (11757783_s_at) / Fold change /veh VCAN (11757783_s_at) / RFU DDX43 (11728927_at) / Fold change /veh DDX43 (11728927_at) / RFU KRT8 (11758188_x_at) / Fold change /veh KRT8 (11758188_x_at) / RFU NKD1 (11759106_at) / Fold change /veh NKD1 (11759106_at) / RFU SRD5A1 (11742802_a_at) / Fold change /veh SRD5A1 (11742802_a_at) / RFU TPSAB1 /// TPSB2 (11721975_s_at) / Fold change /veh TPSAB1 /// TPSB2 (11721975_s_at) / RFU GSTM3 (11746129_a_at) / Fold change /veh GSTM3 (11746129_a_at) / RFU IL23R (11737362_x_at) / Fold change /veh IL23R (11737362_x_at) / RFU TMEM51 (11727254_a_at) / Fold change /veh TMEM51 (11727254_a_at) / RFU PIWIL2 (11732686_x_at) / Fold change /veh PIWIL2 (11732686_x_at) / RFU ORM1 (11744905_x_at) / Fold change /veh ORM1 (11744905_x_at) / RFU CCDC152 (11743942_at) / Fold change /veh CCDC152 (11743942_at) / RFU ECM1 (11717891_a_at) / Fold change /veh ECM1 (11717891_a_at) / RFU IL23R (11748794_a_at) / Fold change /veh IL23R (11748794_a_at) / RFU TNFAIP8L3 (11732012_x_at) / Fold change /veh TNFAIP8L3 (11732012_x_at) / RFU MBOAT4 (11741988_at) / Fold change /veh MBOAT4 (11741988_at) / RFU 11764193_at / Fold change /veh 11764193_at / RFU TMEM53 (11763286_at) / Fold change /veh TMEM53 (11763286_at) / RFU MAGEB2 (11727129_at) / Fold change /veh MAGEB2 (11727129_at) / RFU TMEM200A (11744735_a_at) / Fold change /veh TMEM200A (11744735_a_at) / RFU CCDC152 (11751479_a_at) / Fold change /veh CCDC152 (11751479_a_at) / RFU FAM211A (11726209_a_at) / Fold change /veh FAM211A (11726209_a_at) / RFU RGS16 (11746705_a_at) / Fold change /veh RGS16 (11746705_a_at) / RFU VCAN (11755009_s_at) / Fold change /veh VCAN (11755009_s_at) / RFU RHOB (11743442_s_at) / Fold change /veh RHOB (11743442_s_at) / RFU RGS16 (11720943_a_at) / Fold change /veh RGS16 (11720943_a_at) / RFU RGS16 (11720944_at) / Fold change /veh RGS16 (11720944_at) / RFU, VPS4B / Fold change vs veh, VPS4B / RFU, CREB1 / Fold change vs veh, CREB1 / RFU, DNAJC13 / Fold change vs veh, DNAJC13 / RFU, GNAQ / Fold change vs veh, GNAQ / RFU, CDK5R1 / Fold change vs veh, CDK5R1 / RFU, ZRANB3 / Fold change vs veh, ZRANB3 / RFU, CUL4A / Fold change vs veh, CUL4A / RFU, CCNY / Fold change vs veh, CCNY / RFU, UFL1 / Fold change vs veh, UFL1 / RFU, COG3 / Fold change vs veh, COG3 / RFU, DIAPH2 / Fold change vs veh, DIAPH2 / RFU, SKA2 / Fold change vs veh, SKA2 / RFU, AFF3 / Fold change vs veh, AFF3 / RFU, LMF1 / Fold change vs veh, LMF1 / RFU, IPO11 / Fold change vs veh, IPO11 / RFU, DFFB / Fold change vs veh, DFFB / RFU, FOXP1 / Fold change vs veh, FOXP1 / RFU, CARD8 / Fold change vs veh, CARD8 / RFU, STRN3 / Fold change vs veh, STRN3 / RFU, ADK / Fold change vs veh, ADK / RFU, RASSF2 / Fold change vs veh, RASSF2 / RFU, WIPF1 / Fold change vs veh, WIPF1 / RFU, LARP1B / Fold change vs veh, LARP1B / RFU, RASA1 / Fold change vs veh, RASA1 / RFU, RB1 / Fold change vs veh, RB1 / RFU, PPFIA1 / Fold change vs veh, PPFIA1 / RFU, MAT2A / Fold change vs veh, MAT2A / RFU, CCT5 / Fold change vs veh, CCT5 / RFU, WDR92 / Fold change vs veh, WDR92 / RFU, CUX1 / Fold change vs veh, CUX1 / RFU, TTC7A / Fold change vs veh, TTC7A / RFU, TMEM135 / Fold change vs veh, TMEM135 / RFU, DEPTOR / Fold change vs veh, DEPTOR / RFU, CPM / Fold change vs veh, CPM / RFU, DNAJB6 / Fold change vs veh, DNAJB6 / RFU, CACNA2D3 / Fold change vs veh, CACNA2D3 / RFU, DTX4 / Fold change vs veh, DTX4 / RFU, TFCP2 / Fold change vs veh, TFCP2 / RFU, GMCL1 /// GMCL1P1 / Fold change vs veh, GMCL1 /// GMCL1P1 / RFU, AEBP2 / Fold change vs veh, AEBP2 / RFU, SNHG1 /// SNORD22 /// SNORD25 /// SNORD26 /// SNORD27 /// SNORD28 /// SNORD29 /// SNORD31 / Fold change vs veh, SNHG1 /// SNORD22 /// SNORD25 /// SNORD26 /// SNORD27 /// SNORD28 /// SNORD29 /// SNORD31 / Fold change (Aza/veh), C12orf56 (ProbeSet 11735607_a_at) / Fold change (ACY-1035/veh), C12orf56 (ProbeSet 11735607_a_at) / Fold change (Aza/veh), FGFR1OP (ProbeSet 11751329_s_at) / Fold change (ACY-1035/veh), FGFR1OP (ProbeSet 11751329_s_at) / Fold change (Aza/veh), VPS36 (ProbeSet 11739960_a_at) / Fold change (ACY-1035/veh), VPS36 (ProbeSet 11739960_a_at) / RFU SYPL1 (11715823_x_at) / Fold change /veh SYPL1 (11715823_x_at) / RFU IGFBP7 (11715501_s_at) / Fold change /veh IGFBP7 (11715501_s_at) / RFU REEP3 (11722064_at) / Fold change /veh REEP3 (11722064_at) / RFU IGLL1 (11728026_x_at) / Fold change /veh IGLL1 (11728026_x_at): dose or concentration left out as unconfirmed
Conditions: MV-4-11 cells, 48 hours

SMILES: Nc1ccc(-c2cccs2)cc1NC(=O)c1ccc2c(c1)cc(C1CC1)n2CCN1CCOCC1 [ACY-1035]
- Fold change /veh ARHGAP8 /// PRR5-ARHGAP8 (11727945_x_at): 1.04
